Measurements as given in patent US20090082341A1 (SYNOSIA THERAPEUTICS, priority 2007, published 2009).

What was measured:
A2A receptors in the dog = molecular target: T1, A2A receptors in the dog (Canis lupus familiaris, UniProt P11617); assay: Radioligand binding assay, dog A2A receptor (striatal tissue); design: species or system dog (Beagle); conditions: read-out: pKi, dog A2A receptor (converted)
T1 construct: the cortical (dA1) and striatal (dA2A) tissue was dissected and frozen; from tissue; host or cells: Beagle dog brain striatum, membranes

human A1 receptor = molecular target: T2, human A1 receptor (Homo sapiens, UniProt P30542); assay: NECA-stimulated Ca2+ flux in hA1-Gα16-CHO cells (FLIPR); format: cell-based
T2 sequence (P30542 1-326): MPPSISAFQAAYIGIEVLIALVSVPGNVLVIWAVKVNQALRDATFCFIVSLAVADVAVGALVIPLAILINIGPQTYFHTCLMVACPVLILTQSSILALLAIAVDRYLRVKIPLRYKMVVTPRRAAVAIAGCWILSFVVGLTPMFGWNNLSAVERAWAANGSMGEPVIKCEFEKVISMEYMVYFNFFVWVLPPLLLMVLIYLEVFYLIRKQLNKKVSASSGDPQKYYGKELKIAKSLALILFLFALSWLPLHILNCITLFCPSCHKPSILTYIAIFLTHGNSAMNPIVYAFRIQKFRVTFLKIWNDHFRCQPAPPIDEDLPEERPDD
Experimental: The density of cells was sufficient to yield a confluent monolayer the next day. Hanks balanced salt solution, without phenol red, containing 20 mM HEPES (pH 7.3) and 2.5 mM probenecid (assay buffer) was prepared fresh for each experiment. […] The dye-loading buffer consisted of a final concentration of 2 μM Fluo-4-AM (dissolved in DMSO and pluronic acid) in assay buffer. […] Once dye-loaded, the cells were washed thoroughly on an Embla cell washer with the assay buffer to remove any unincorporated dye. Exactly 100 μl assay buffer was left in each well.
J. Pharm. […] The concentration of agonist that produced a half-maximal response is represented by the EC50 value, the logarithm of which yielded the pEC50 value.

T1 sequence (P11617 whole entry): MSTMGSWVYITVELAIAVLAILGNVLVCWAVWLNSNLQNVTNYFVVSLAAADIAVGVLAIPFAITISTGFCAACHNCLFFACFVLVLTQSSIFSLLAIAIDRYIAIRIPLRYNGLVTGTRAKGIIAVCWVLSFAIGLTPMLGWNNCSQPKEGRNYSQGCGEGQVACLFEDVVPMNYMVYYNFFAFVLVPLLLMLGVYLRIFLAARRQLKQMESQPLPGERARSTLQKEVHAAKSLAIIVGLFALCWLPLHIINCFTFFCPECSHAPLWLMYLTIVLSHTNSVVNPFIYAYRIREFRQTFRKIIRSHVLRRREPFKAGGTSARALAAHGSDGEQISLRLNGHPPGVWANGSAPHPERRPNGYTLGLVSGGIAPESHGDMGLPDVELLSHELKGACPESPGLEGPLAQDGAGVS

## COc1ccc(N2CCOCC2)c2sc(NC(=O)N3CCC(C)(O)CC3)nc12 [4-hydroxy-4-methyl-piperidine-1-carboxylic acid (4-methoxy-7-morpholin-4-yl-benzothiazol-2-yl)-amide]
A2A receptors in the dog
  Ki: 0.0126 µM
Human A1 receptor
  Hill slope, hA1 Ca2+ flux: 0.7
Human A1 receptor; read-out: pIC50, antagonism of NECA-stimulated Ca2+ flux, hA1 (converted)
  IC50: > 10 µM
